Consider five compounds from patent US20160213742A1, “COMPOSITIONS AND METHODS FOR THE TREATMENT OF FUNGAL INFECTIONS” (priority 2013, published 2016).

Common to all, as to assay type: cell-based
The subject of assay [1] is Neutrophils purified from human peripheral blood. Put plainly: Human Neutrophil Transwell Migration Assay. The note with it: 37° C., 45 minutes, % of the maximum migration possible. The source says:
Neutrophils were purified from human peripheral blood utilizing PolymorphPrep. Red blood cells were lysed with a lysis buffer and the cells were washed, counted and resuspended in assay buffer. Neutrophils (approximately 50,000 to 100,000 in number) were placed over 5-micon pore sized transwell plates in 24-well format with test compounds in the bottom chamber of each well. A negative control of media alone in the bottom chamber was set up in triplicate. A positive control where the neutrophils were added directly to the bottom well was set up in triplicate.
The plates were incubated at 37° C. for 45 minutes to allow for migration. After this time, migration was confirmed visually and then an aliquot (⅙^th of total cells) from each well was taken for ATP detection via luminescence with ATPlite (PerkinElmer) to quantify the number of migrated cells. The averaged reading for random migration detected in the negative control was subtracted from all readings to obtain the corrected migration number. These numbers were then divided by the averaged reading from the positive control to get the % Neutrophil Migration of the maximum migration possible.

The test system of a further assay is C. glabrata ATCC 90030. Put plainly: microbe, parasite or virus in culture. The note with it: ATCC 90030, pH 7. The method, then:
(§1) The test organisms consisted of strains from the Micromyx collection. Reference isolates were originally received from the American Type Culture Collection (ATCC; Manassas, Va.). Organisms received at Micromyx were initially streaked for isolation on Sabouraud dextrose or potato dextrose agar. Colonies were picked by swab from the medium and resuspended in the appropriate broth containing cryoprotectant. The suspensions were aliquoted into cryogenic vials and maintained at −80° C. Prior to testing, Candida isolates were streaked from the frozen vials on Sabouraud dextrose agar. The yeast isolates were incubated at overnight at 35° C. before use. The fungal isolates were incubated at least 7 days on Sabouraud dextrose agar slants at 35° C. before harvesting.
(§2) Isolates were tested in RPMI medium (Catalog No. SH30011.04; Lot No. AWA92121B; HyClone Labs, Logan, Utah) which was prepared according to CLSI guidelines. The pH of the medium was adjusted to 7.0 with 1 N NaOH. The medium was sterile filtered using a 0.2 μm PES filter and stored at 4° C. until used.
(§3) The MIC assay method employed automated liquid handlers to conduct serial dilutions and liquid transfers. Automated liquid handlers included the Multidrop 384 (Labsystems, Helsinki, Finland), Biomek 2000 and Biomek FX (Beckman Coulter, Fullerton Calif.). The wells in columns 2-12 in standard 96-well microdilution plates (Costar 3795) were filled with 150 μl of the correct diluent (50% DMSO for investigational compounds, 100% DMSO for comparator compounds). These would become the mother plates' from which ‘daughter’ or test plates would be prepared. Stocks were diluted to 40× the desired top concentration in the test plates in the indicated solvent, and 300 μL of the 40× stock was dispensed into the appropriate well in Column 1 of the mother plates. The Biomek 2000 was used to make serial serial 2-fold dilutions through Column 11 in the “mother plate”. The wells of Column 12 contained no drug and served as the organism growth control wells.
(§4) The daughter plates were loaded with 185 μL per well of RPMI described above using the Multidrop 384. The daughter plates were prepared using the Biomek FX which transferred 5 μL of drug solution from each well of a mother plate to the corresponding well of the daughter plate in a single step.
(§5) A standardized inoculum of each organism was prepared. For Candida, colonies were picked from the streak plate and a suspension was prepared in RPMI medium equal to a 0.5 McFarland standard, then diluted 1:100 in RPMI and transferred to compartments of sterile reservoirs divided by length (Beckman Coulter). For the Aspergillus isolates, previously prepared and quantitated suspensions were used to make dilutions in RPMI to reach 20× the final concentration. These dilutions were also transferred to compartments of sterile reservoirs divided by length (Beckman Coulter). The final concentration of the Aspergillus isolates was approximately 0.2-2.5×10^4 CFU/mL.
(§6) The Biomek 2000 was used to inoculate the plates. Daughter plates were placed on the Biomek 2000 work surface reversed so that inoculation took place from low to high drug concentration. The Biomek 2000 delivered 10 μL of standardized inoculum into each well. Thus, the wells of the daughter plates ultimately contained 185 μL of RPMI, 5 μL of drug solution, and 10 μL of inoculum. The final concentration of DMSO in the test well was 2.5% for the evaluated comparators and 1.25% for the investigational agents.
(§7) Plates were stacked 3 high, covered with a lid on the top plate, placed into plastic bags, and incubated at 35° C. for approximately 24-48 hr prior to reading. Plates were read when inoculum was confluent in growth wells. Plates were viewed from the bottom using a plate viewer. […] MICs were read where visible growth of the organism was inhibited. MECs were read where the growth shifted to a small, rounded, compact hyphal form as compared to the hyphal growth seen in the growth control well.

For a further assay, the system named is C. krusei ATCC 14243. Briefly: microbe, parasite or virus in culture. The settings on record: ATCC 14243, pH 7. The method, then:
as §1, §2, §3, §4, §5, §6, §7

The next assay deals with C. albicans ATCC 90028. Briefly: microbe, parasite or virus in culture. The note with it: ATCC 90028, pH 7. The method, then: as §1, §2, §3, §4, §5, §6, §7
The test system of assay [2] is C. parapsilosis ATCC 22019. Briefly: microbe, parasite or virus in culture. The settings on record: ATCC 22019, pH 7. The method, then: as §1, §2, §3, §4, §5, §6, §7
The subject of another assay is A. fumigatus MX 5944. Briefly: MEC assay (Example 31). The settings on record: RPMI pH 7.0, 35° C., 24-48 hr. The method, then: as §1, §2, §3, §4, §5, §6, §7
For another assay, the system named is A. fumigatus MYA-3626. Briefly: MEC assay (Example 31). The note with it: RPMI pH 7.0, 35° C., 24-48 hr. The method, then: as §1, §2, §3, §4, §5, §6, §7
The test system of a further assay is A. fumigatus MYA-4609. Put plainly: MEC assay (Example 31). The note with it: RPMI pH 7.0, 35° C., 24-48 hr. The method, then:
as §1, §2, §3, §4, §5, §6, §7

For the next assay, the system named is A. flavus MX 5948. Put plainly: MEC assay (Example 31). The note with it: RPMI pH 7.0, 35° C., 24-48 hr. The method, then:
as §1, §2, §3, §4, §5, §6, §7

A further assay relates to A. fumigatus ATCC 13073. Put plainly: MEC assay (Example 31). The settings on record: RPMI pH 7.0, 35° C., 24-48 hr. The method, then:
as §1, §2, §3, §4, §5, §6, §7

In brackets after ≈: the same amount, converted by molar mass.

For the compound `CC[C@H](C)C[C@H](C)CCCCCCCCC(=O)N[C@H]1C[C@@H](O)[C@@H](NCCNC(=O)CCNC(=O)[C@H](Cc2ccccc2)NC(=O)[C@H](CC(C)C)NC(=O)[C@H](CCSC)NC=O)NC(=O)[C@@H]2[C@@H](O)CCN2C(=O)[C@H]([C@H](O)CCN)NC(=O)[C@H]([C@H](O)[C@@H](O)c2ccc(O)cc2)NC(=O)[C@@H]2C[C@@H](O)CN2C(=O)[C@H]([C@@H](C)O)NC1=O` [Compound 4], the “% Neutrophil Migration” value in assay [1] (conc 0.001 μg/mL) was 3.8%; in assay [1] (conc 0.01 μg/mL), 88.0%; in assay [1] (conc 0.1 μg/mL) it was 15.1%; in assay [1] (conc 1 μg/mL), −9.8%; in [1] (conc 10 μg/mL) it was −11.2%. Further, the MIC with C. glabrata ATCC 90030 was 4 µg/mL (≈ 2.53 µM); in the assay on C. krusei ATCC 14243, 8 µg/mL (≈ 5.05 µM); in the assay on C. albicans ATCC 90028, 2 µg/mL (≈ 1.26 µM); in assay [2], 32 µg/mL (≈ 20.2 µM). The MEC was 1 µg/mL with A. fumigatus MX 5944; 2 µg/mL with A. fumigatus MYA-3626; 1 µg/mL in the assay on A. fumigatus MYA-4609; 1 µg/mL in the assay with A. flavus MX 5948; 1 µg/mL with A. fumigatus ATCC 13073.
For `CC[C@H](C)C[C@H](C)CCCCCCCCC(=O)N[C@H]1C[C@@H](O)[C@@H](NCCN)NC(=O)[C@@H]2[C@@H](O)CCN2C(=O)[C@H]([C@H](O)CCNC(=O)[C@H](CCCCN)NC(=O)[C@H](Cc2ccccc2)NC(=O)[C@H](CC(C)C)NC(=O)[C@H](CCSC)NC=O)NC(=O)[C@H]([C@H](O)[C@@H](O)c2ccc(O)cc2)NC(=O)[C@@H]2C[C@@H](O)CN2C(=O)[C@H]([C@@H](C)O)NC1=O` [Compound 14], the “% Neutrophil Migration” value is 0.9% in assay [1] (conc 0.001 μg/mL); 1.9% in assay [1] (conc 0.01 μg/mL); 14.8% in [1] (conc 0.1 μg/mL); 21.4% in [1] (conc 1 μg/mL); −9.0% in assay [1] (conc 10 μg/mL). The MIC is 16 µg/mL (≈ 9.75 µM) against C. glabrata ATCC 90030, 16 µg/mL (≈ 9.75 µM) against C. krusei ATCC 14243, 2 µg/mL (≈ 1.22 µM) in the assay on C. albicans ATCC 90028 and 16 µg/mL (≈ 9.75 µM) in assay [2]. Moreover, the MEC with A. fumigatus MX 5944 is 0.12 µg/mL; in the assay with A. fumigatus MYA-3626 it was 0.25 µg/mL; in the assay on A. fumigatus MYA-4609, 0.12 µg/mL; with A. flavus MX 5948 it was 0.12 µg/mL; in the assay on A. fumigatus ATCC 13073 it was 0.25 µg/mL.
As to `CC[C@H](C)C[C@H](C)CCCCCCCCC(=O)N[C@H]1C[C@@H](O)[C@@H](NCCN)NC(=O)[C@@H]2[C@@H](O)CCN2C(=O)[C@H]([C@H](O)CCNC(=O)[C@@H](N)CCCCNC(=O)[C@H](Cc2ccccc2)NC(=O)[C@H](CC(C)C)NC(=O)[C@H](CCSC)NC=O)NC(=O)[C@H]([C@H](O)[C@@H](O)c2ccc(O)cc2)NC(=O)[C@@H]2C[C@@H](O)CN2C(=O)[C@H]([C@@H](C)O)NC1=O` [Compound 15], the “% Neutrophil Migration” value was 9.6% in [1] (conc 0.001 μg/mL); 47.3% in [1] (conc 0.01 μg/mL); 13.0% in assay [1] (conc 0.1 μg/mL); −6.3% in [1] (conc 1 μg/mL); −7.0% in assay [1] (conc 10 μg/mL). Also, the MIC in the assay with C. glabrata ATCC 90030 is 2 µg/mL (≈ 1.22 µM); against C. krusei ATCC 14243 it was 8 µg/mL (≈ 4.87 µM); in the assay with C. albicans ATCC 90028 it was 1 µg/mL (≈ 0.609 µM); in assay [2], 16 µg/mL (≈ 9.75 µM). Moreover, the MEC in the assay on A. fumigatus MX 5944, in the assay with A. fumigatus MYA-3626, in the assay with A. fumigatus MYA-4609, with A. flavus MX 5948 and with A. fumigatus ATCC 13073 was 0.12 µg/mL throughout.
As to `CC[C@H](C)C[C@H](C)CCCCCCCCC(=O)N[C@H]1C[C@@H](O)[C@@H](NCCN)NC(=O)[C@@H]2[C@@H](O)CCN2C(=O)[C@H]([C@H](O)CCNC(=O)[C@H](CCSC)NC=O)NC(=O)[C@H]([C@H](O)[C@@H](O)c2ccc(O)cc2)NC(=O)[C@@H]2C[C@@H](O)CN2C(=O)[C@H]([C@@H](C)O)NC1=O` [Compound 26], the “% Neutrophil Migration” value in assay [1] (conc 0.001 μg/mL) is −3.4%; in assay [1] (conc 0.01 μg/mL) it was −3.4%; in [1] (conc 0.1 μg/mL), −5.1%; in [1] (conc 1 μg/mL), −4.1%; in assay [1] (conc 10 μg/mL) it was 15.7%. Besides, the MIC against C. glabrata ATCC 90030 was 1 µg/mL (≈ 0.798 µM); in the assay with C. krusei ATCC 14243 it was 4 µg/mL (≈ 3.19 µM); in the assay on C. albicans ATCC 90028, 0.25 µg/mL (≈ 0.2 µM); in [2], 4 µg/mL (≈ 3.19 µM). For the same compound, the MEC result in the assay on A. fumigatus MX 5944, in the assay with A. fumigatus MYA-3626, in the assay with A. fumigatus MYA-4609, in the assay with A. flavus MX 5948 and with A. fumigatus ATCC 13073 was “≦0.03 μg/mL” throughout.
With `CC[C@H](C)C[C@H](C)CCCCCCCCC(=O)N[C@H]1C[C@@H](O)[C@@H](NCCN)NC(=O)[C@@H]2[C@@H](O)CCN2C(=O)[C@H]([C@H](O)CCNC(=O)[C@H](CC(C)C)NC(=O)[C@H](CCSC)NC=O)NC(=O)[C@H]([C@H](O)[C@@H](O)c2ccc(O)cc2)NC(=O)[C@@H]2C[C@@H](O)CN2C(=O)[C@H]([C@@H](C)O)NC1=O` [Compound 27], the “% Neutrophil Migration” value is listed as −1.6% in assay [1] (conc 0.001 μg/mL); 3.4% in [1] (conc 0.01 μg/mL); −4.2% in assay [1] (conc 0.1 μg/mL); −1.6% in assay [1] (conc 1 μg/mL); 37.0% in assay [1] (conc 10 μg/mL). In addition, the MIC with C. glabrata ATCC 90030 came out at 2 µg/mL (≈ 1.46 µM); with C. krusei ATCC 14243, 8 µg/mL (≈ 5.86 µM); against C. albicans ATCC 90028, 2 µg/mL (≈ 1.46 µM); in assay [2] it was 16 µg/mL (≈ 11.7 µM). Further, the MEC stood at 0.12 µg/mL in the assay on A. fumigatus MX 5944; 0.25 µg/mL in the assay on A. fumigatus MYA-3626; 0.12 µg/mL with A. fumigatus MYA-4609; 0.06 µg/mL in the assay with A. flavus MX 5948; 8 µg/mL with A. fumigatus ATCC 13073.
